Legend:
[1] = biological target: 5'-AMP-activated protein kinase catalytic subunit alpha-2 (Homo sapiens) (UniProt P54646)
[2] = biological target: Calcium/calmodulin-dependent protein kinase type 1D (Homo sapiens) (UniProt Q8IU85)
[3] = biological target: Calcium/calmodulin-dependent protein kinase type 1G (Homo sapiens) (UniProt Q96NX5)
[4] = biological target: Calcium/calmodulin-dependent protein kinase type II subunit delta (Homo sapiens) (UniProt Q13557)
[5] = biological target: Calcium/calmodulin-dependent protein kinase kinase 2 (Homo sapiens, UniProt Q96RR4)
[6] = biological target: Cyclin-dependent kinase 2 (Homo sapiens, UniProt P24941)
[7] = biological target: Dual specificity protein kinase CLK2 (Homo sapiens) (UniProt P49760)
[8] = biological target: Casein kinase I isoform gamma-1 (Homo sapiens) (UniProt Q9HCP0)
[9] = biological target: Casein kinase I isoform gamma-2 (Homo sapiens) (UniProt P78368)
[10] = biological target: Death-associated protein kinase 3 (Homo sapiens) (UniProt O43293)
[11] = biological target: Glycogen synthase kinase-3 beta (Homo sapiens, UniProt P49841)
[12] = biological target: Tyrosine-protein kinase JAK1 (Homo sapiens) (UniProt P23458)
[13] = biological target: Dual specificity mitogen-activated protein kinase kinase 2 (Homo sapiens, UniProt P36507)
[14] = biological target: T1, Dual specificity mitogen-activated protein kinase kinase 6 (Homo sapiens) (UniProt P52564)
T1 sequence (whole entry): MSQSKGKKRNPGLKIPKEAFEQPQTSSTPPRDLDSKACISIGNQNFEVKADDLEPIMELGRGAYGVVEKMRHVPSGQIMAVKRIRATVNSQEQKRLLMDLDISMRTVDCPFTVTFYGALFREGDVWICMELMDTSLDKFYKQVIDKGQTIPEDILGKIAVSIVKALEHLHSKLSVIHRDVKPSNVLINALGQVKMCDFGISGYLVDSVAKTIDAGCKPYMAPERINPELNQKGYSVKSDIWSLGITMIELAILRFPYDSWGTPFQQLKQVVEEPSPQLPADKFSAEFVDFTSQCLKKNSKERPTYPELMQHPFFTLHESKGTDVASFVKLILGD

[15] = biological target: Mitogen-activated protein kinase 3 (Homo sapiens, UniProt P27361)
[16] = biological target: Serine/threonine-protein kinase Nek6 (Homo sapiens) (UniProt Q9HC98)
[17] = biological target: Serine/threonine-protein kinase OSR1 (Homo sapiens) (UniProt O95747)
[18] = biological target: Serine/threonine-protein kinase PAK 5 (Homo sapiens) (UniProt Q9P286)
[19] = biological target: Cyclin-dependent kinase 16 (Homo sapiens) (UniProt Q00536)
[20] = biological target: Serine/threonine-protein kinase pim-3 (Homo sapiens) (UniProt Q86V86)
[21] = biological target: Serine/threonine-protein kinase PLK1 (Homo sapiens) (UniProt P53350)
[22] = biological target: cAMP-dependent protein kinase catalytic subunit alpha (Homo sapiens) (UniProt P17612)
[23] = biological target: Serine/threonine-protein kinase RIO2 (Homo sapiens) (UniProt Q9BVS4)
[24] = biological target: Ribosomal protein S6 kinase alpha-3 (Homo sapiens) (UniProt P51812)
[25] = biological target: STE20-like serine/threonine-protein kinase (Homo sapiens) (UniProt Q9H2G2)
[26] = biological target: Serine/threonine-protein kinase 10 (Homo sapiens) (UniProt O94804)
[27] = biological target: Serine/threonine-protein kinase 26 (Homo sapiens) (UniProt Q9P289)
[28] = biological target: TRAF2 and NCK-interacting protein kinase (Homo sapiens) (UniProt Q9UKE5)
[29] = biological target: T2, Lymphokine-activated killer T-cell-originated protein kinase (Homo sapiens) (UniProt Q96KB5)
T2 sequence (whole entry): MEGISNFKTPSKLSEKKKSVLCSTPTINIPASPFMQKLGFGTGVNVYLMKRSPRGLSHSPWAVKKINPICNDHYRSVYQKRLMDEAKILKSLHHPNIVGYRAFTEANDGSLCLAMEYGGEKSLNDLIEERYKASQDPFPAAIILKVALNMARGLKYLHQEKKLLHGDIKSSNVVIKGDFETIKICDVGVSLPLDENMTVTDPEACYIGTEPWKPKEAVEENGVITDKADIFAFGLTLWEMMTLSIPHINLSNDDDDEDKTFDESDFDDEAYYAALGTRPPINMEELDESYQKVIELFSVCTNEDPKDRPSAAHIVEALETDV

[30] = biological target: Serine/threonine-protein kinase 25 (Homo sapiens) (UniProt O00506)
Sequence of Serine/threonine-protein kinase 25 (Homo sapiens) (O00506 whole entry, looked up): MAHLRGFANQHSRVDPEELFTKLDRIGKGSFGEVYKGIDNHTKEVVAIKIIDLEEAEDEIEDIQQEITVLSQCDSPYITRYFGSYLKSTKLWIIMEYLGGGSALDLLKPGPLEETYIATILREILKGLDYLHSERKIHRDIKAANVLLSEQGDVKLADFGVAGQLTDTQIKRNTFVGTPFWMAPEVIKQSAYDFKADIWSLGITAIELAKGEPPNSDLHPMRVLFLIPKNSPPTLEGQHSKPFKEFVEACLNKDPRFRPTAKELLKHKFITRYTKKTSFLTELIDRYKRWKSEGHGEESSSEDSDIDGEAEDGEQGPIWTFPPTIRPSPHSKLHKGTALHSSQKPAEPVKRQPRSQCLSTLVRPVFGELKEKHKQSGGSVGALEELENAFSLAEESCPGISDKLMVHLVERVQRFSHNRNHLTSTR

Sequence of Casein kinase I isoform gamma-1 (Homo sapiens) (Q9HCP0 whole entry, looked up, canonical isoform): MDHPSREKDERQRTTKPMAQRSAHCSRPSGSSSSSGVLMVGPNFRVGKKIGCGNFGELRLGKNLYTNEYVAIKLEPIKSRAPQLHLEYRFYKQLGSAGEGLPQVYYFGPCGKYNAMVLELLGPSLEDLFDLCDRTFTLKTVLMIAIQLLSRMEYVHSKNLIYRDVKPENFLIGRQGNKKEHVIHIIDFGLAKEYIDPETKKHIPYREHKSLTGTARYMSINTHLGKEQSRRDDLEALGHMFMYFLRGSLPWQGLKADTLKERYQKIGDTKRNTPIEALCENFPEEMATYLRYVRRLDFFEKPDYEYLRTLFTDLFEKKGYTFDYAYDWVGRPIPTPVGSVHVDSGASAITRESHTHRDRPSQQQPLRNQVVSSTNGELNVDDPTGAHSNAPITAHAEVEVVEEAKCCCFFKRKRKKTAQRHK
Sequence of Calcium/calmodulin-dependent protein kinase kinase 2 (Q96RR4 2-588 limits assumed): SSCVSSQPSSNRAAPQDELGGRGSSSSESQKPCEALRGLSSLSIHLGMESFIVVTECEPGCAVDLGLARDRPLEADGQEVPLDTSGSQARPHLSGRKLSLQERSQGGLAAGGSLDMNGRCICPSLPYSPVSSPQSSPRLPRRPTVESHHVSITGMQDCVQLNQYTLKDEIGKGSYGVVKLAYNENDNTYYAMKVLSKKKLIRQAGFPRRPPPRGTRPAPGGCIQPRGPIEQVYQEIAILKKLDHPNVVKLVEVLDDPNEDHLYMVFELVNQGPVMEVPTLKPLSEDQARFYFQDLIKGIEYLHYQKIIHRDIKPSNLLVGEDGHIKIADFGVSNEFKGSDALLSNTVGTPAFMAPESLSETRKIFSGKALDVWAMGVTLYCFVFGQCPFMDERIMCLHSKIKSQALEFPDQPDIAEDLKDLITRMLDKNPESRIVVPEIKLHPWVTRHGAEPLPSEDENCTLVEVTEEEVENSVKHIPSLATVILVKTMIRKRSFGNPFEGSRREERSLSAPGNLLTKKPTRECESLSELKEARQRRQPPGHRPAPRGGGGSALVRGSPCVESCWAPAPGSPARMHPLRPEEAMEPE
Sequence of Tyrosine-protein kinase JAK1 (Homo sapiens) (P23458 whole entry): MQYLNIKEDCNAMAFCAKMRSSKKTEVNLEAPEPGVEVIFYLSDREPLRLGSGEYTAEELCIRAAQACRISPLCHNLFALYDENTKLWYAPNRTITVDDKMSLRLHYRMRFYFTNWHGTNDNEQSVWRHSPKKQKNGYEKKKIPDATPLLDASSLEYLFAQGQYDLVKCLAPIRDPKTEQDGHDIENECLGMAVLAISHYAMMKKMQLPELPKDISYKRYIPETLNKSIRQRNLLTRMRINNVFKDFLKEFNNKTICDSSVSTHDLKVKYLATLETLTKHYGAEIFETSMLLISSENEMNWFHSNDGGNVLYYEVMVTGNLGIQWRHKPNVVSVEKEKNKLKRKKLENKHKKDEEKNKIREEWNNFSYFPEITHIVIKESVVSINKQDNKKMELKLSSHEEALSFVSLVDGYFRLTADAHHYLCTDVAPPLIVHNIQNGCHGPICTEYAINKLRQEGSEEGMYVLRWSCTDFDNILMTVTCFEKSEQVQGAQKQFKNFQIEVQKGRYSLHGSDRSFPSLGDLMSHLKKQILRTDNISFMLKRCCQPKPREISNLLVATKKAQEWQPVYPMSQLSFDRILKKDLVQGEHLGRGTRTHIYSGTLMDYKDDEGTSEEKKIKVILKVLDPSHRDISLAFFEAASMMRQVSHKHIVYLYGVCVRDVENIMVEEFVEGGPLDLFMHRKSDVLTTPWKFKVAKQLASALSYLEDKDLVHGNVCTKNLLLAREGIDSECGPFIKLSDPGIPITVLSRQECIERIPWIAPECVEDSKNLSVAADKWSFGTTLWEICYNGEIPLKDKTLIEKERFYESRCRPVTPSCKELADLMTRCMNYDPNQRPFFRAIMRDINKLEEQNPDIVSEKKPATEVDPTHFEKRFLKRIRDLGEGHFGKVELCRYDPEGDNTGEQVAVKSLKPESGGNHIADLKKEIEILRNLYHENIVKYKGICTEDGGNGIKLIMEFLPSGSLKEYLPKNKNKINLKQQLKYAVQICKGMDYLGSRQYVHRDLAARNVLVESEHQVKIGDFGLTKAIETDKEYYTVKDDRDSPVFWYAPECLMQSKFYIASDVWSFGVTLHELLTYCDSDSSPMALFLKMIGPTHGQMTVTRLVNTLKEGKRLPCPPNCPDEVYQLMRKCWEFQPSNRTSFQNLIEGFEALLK
Sequence of Calcium/calmodulin-dependent protein kinase type 1G (Homo sapiens) (Q96NX5 whole entry): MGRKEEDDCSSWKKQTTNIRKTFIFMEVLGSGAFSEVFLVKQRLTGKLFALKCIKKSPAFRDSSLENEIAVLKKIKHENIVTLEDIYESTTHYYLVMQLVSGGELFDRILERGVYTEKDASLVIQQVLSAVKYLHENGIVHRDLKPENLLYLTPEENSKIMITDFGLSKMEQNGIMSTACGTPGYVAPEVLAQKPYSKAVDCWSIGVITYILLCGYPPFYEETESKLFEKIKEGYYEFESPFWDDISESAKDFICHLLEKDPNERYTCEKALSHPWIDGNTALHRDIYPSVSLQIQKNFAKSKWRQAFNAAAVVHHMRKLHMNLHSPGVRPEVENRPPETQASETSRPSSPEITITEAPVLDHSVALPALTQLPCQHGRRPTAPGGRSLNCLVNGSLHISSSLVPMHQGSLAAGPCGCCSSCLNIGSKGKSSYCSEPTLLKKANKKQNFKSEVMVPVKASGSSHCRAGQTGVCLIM
Sequence of Glycogen synthase kinase-3 beta (P49841 whole entry, looked up): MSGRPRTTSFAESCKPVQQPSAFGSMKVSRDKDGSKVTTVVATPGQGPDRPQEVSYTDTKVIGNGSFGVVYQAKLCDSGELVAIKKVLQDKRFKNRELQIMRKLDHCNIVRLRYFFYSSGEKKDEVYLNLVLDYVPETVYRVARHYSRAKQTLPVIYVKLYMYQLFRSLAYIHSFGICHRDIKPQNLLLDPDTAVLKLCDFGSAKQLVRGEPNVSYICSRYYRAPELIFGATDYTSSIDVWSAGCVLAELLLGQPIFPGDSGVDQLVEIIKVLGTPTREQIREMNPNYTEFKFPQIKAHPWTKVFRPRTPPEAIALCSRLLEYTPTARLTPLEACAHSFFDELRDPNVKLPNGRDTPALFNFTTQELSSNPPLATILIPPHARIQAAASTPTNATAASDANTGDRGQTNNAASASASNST
Sequence of Ribosomal protein S6 kinase alpha-3 (Homo sapiens) (P51812 whole entry): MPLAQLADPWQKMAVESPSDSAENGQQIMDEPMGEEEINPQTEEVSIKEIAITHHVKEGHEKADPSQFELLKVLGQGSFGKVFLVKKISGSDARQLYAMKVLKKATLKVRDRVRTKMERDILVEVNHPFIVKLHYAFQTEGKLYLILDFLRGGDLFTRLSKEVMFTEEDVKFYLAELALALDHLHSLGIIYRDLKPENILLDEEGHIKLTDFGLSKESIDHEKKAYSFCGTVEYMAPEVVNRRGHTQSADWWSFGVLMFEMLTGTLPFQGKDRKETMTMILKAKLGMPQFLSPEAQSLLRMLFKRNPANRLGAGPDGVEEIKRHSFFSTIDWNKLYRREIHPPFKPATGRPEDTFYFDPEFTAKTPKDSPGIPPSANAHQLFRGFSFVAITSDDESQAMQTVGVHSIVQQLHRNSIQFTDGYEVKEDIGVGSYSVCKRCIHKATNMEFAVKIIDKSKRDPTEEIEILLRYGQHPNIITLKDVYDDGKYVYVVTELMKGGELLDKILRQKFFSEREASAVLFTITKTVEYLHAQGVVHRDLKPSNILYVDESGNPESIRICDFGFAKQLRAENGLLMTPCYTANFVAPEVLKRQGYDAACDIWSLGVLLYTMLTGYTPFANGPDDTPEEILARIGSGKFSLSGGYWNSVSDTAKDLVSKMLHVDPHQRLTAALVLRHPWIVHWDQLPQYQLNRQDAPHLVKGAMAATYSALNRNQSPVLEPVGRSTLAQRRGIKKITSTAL
Sequence of Casein kinase I isoform gamma-2 (Homo sapiens) (P78368 whole entry, looked up, canonical isoform): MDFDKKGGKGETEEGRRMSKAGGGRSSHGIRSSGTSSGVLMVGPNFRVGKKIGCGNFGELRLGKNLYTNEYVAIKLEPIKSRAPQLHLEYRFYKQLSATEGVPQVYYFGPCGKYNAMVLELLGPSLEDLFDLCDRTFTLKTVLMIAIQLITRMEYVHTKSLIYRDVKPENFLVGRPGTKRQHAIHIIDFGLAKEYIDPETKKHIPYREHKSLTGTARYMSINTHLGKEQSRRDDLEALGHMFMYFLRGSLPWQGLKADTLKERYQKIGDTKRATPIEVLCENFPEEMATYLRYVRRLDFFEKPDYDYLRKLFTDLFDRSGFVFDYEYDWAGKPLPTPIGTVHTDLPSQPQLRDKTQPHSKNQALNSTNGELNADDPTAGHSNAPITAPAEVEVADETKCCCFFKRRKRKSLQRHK
Sequence of Calcium/calmodulin-dependent protein kinase type 1D (Homo sapiens) (Q8IU85 whole entry, looked up): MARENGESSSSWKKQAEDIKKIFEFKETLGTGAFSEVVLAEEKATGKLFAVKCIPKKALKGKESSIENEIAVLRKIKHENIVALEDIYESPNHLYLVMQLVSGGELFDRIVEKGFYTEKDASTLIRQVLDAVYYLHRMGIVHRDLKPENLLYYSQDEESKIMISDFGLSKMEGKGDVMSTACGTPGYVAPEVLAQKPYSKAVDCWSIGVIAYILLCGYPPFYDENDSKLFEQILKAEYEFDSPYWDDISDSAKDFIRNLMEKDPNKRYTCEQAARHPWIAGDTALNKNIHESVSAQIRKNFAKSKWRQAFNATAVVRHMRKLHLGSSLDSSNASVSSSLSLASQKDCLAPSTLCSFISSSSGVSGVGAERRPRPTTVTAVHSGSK

SMILES	ΔTm [1] [°C]	ΔTm [2] [°C]	ΔTm [3] [°C]	ΔTm [4] [°C]	ΔTm [5] [°C]	ΔTm [6] [°C]	ΔTm [7] [°C]	ΔTm [8] [°C]	ΔTm [9] [°C]	ΔTm [10] [°C]	ΔTm [11] [°C]	ΔTm [12] [°C]	ΔTm [13] [°C]	ΔTm [14] [°C]	ΔTm [15] [°C]	ΔTm [16] [°C]	ΔTm [17] [°C]	ΔTm [18] [°C]	ΔTm [19] [°C]	ΔTm [20] [°C]	further results
O=C1Nc2ccc(I)cc2/C1=C1/Nc2ccccc2/C1=N\O	6.8	0.1	0.5	3.6	6.9	6.8	2.9	1.5	1.9	1.4	8.8	8.3	6.4	1.5	2.1	-2	-1.3	1.3	5.6	6.3	ΔTm [21]: -0.7 °C; ΔTm [22]: -0.7 °C; ΔTm [23]: 2.5 °C; ΔTm [24]: 3.3 °C; ΔTm [25]: 3.7 °C; ΔTm [26]: 0 °C; ΔTm [27]: 0 °C; ΔTm [28]: 5.2 °C; ΔTm [29]: -2.4 °C; ΔTm [30]: 3.2 °C
N#C/C(=C\c1ccc(O)c(O)c1)C(=O)Nc1ccccc1	-0.3	0.3	0.4	1	0.5	1.1	0.9	1	1.2	1.4	0.7	0.8	0.3	0.3	0.5	0.9	0.6	0.4	-0.5	2.8	ΔTm [21]: 0.7 °C; ΔTm [22]: 0.4 °C; ΔTm [23]: 0.5 °C; ΔTm [24]: 0.8 °C; ΔTm [25]: 1.8 °C; ΔTm [26]: 1.2 °C; ΔTm [27]: 0.4 °C; ΔTm [28]: 1 °C; ΔTm [29]: 0.5 °C; ΔTm [30]: 0.5 °C
COC1=C2C[C@@H](C)C[C@H](OC)[C@H](O)[C@@H](C)/C=C(\C)[C@H](OC(N)=O)[C@@H](OC)/C=C\C=C(/C)C(=O)NC(=CC1=O)C2=O	0.4	0.1	0.2	-0.5	-0.6	0.5	-0.1	0.5	0.4	-0.6	0.5	-0.5	-0.5	0	0.1	-0.2	0.8	0	-0.4	0.5	ΔTm [21]: 0.1 °C; ΔTm [22]: 1.1 °C; ΔTm [23]: -0.6 °C; ΔTm [24]: -0.3 °C; ΔTm [25]: 1.7 °C; ΔTm [26]: 0.5 °C; ΔTm [27]: -0.3 °C; ΔTm [28]: -0.4 °C; ΔTm [29]: 0.6 °C; ΔTm [30]: -0.6 °C
Cc1cncc2cccc(S(=O)(=O)N3CCCNC[C@@H]3C)c12	1.7	0.9	-0.1	-0.4	-0.1	0.7	1.8	0	0.6	4.8	0.6	-0.1	-0.3	0.4	0.2	0	0.6	0.5	-0.6	0.8	ΔTm [21]: 0.7 °C; ΔTm [22]: 3.5 °C; ΔTm [23]: 0.4 °C; ΔTm [24]: 5.5 °C; ΔTm [25]: 2.9 °C; ΔTm [26]: 3.5 °C; ΔTm [27]: 0.8 °C; ΔTm [28]: 1 °C; ΔTm [29]: 1 °C; ΔTm [30]: 1.1 °C
O=c1sn(Cc2ccccc2)c(=S)n1Cc1ccccc1	-0.9	0.1	-0.1	0.6	-1.2	0.3	-0.2	0.5	0.2	-0.2	-1	2.3	0	0.1	-0.3	0.1	0.1	0.5	-0.4	0.3	ΔTm [21]: 1.3 °C; ΔTm [22]: 0.4 °C; ΔTm [23]: 0.1 °C; ΔTm [24]: -0.4 °C; ΔTm [25]: 0.4 °C; ΔTm [26]: 0.9 °C; ΔTm [27]: 0.5 °C; ΔTm [28]: 0 °C; ΔTm [29]: -0.4 °C; ΔTm [30]: 0.5 °C
Cc1cc2ncc(-c3ccccc3)nc2cc1C	-1	0.6	0.7	0.4	-0.4	0.3	0.7	0.7	0.5	-0.1	-0.6	1.3	0	0.3	-0.6	0.2	0.5	0.8	0.3	0.5	ΔTm [21]: 0.7 °C; ΔTm [22]: 1.1 °C; ΔTm [23]: -0.5 °C; ΔTm [24]: -0.1 °C; ΔTm [25]: 0.4 °C; ΔTm [26]: 1 °C; ΔTm [27]: 1.2 °C; ΔTm [28]: 0.6 °C; ΔTm [29]: -0.6 °C; ΔTm [30]: 0.3 °C
CN(C)CC1CCn2c(c(C3=C(c4c[nH]c5ccccc45)C(=O)NC3=O)c3ccccc32)C1 (stereo not given)	-0.5	-0.1	0.3	0	-0.8	2.5	1.1	0.5	0.3	0.5	9.2	-1.5	-0.1	0.8	-0.2	-0.9	-0.4	0.6	3	3.4	ΔTm [21]: -0.2 °C; ΔTm [22]: 2.2 °C; ΔTm [23]: 0.7 °C; ΔTm [24]: 0.8 °C; ΔTm [25]: 4.2 °C; ΔTm [26]: 4.1 °C; ΔTm [27]: 0.4 °C; ΔTm [28]: 0.5 °C; ΔTm [29]: -0.8 °C; ΔTm [30]: 0.4 °C
Nc1ncnc2c1c(I)cn2[C@@H]1O[C@H](CO)[C@@H](O)[C@H]1O	1	0.2	0.2	-0.4	2	2.9	5.6	2.5	3.7	2.9	2	0.2	1.9	2.7	1.5	-0.2	2.4	0.7	0.1	1.5	ΔTm [21]: 1 °C; ΔTm [22]: 1.3 °C; ΔTm [23]: 1.7 °C; ΔTm [24]: 1.4 °C; ΔTm [25]: 4.2 °C; ΔTm [26]: 4.7 °C; ΔTm [27]: 2.1 °C; ΔTm [28]: 1.6 °C; ΔTm [29]: 0 °C; ΔTm [30]: 4.2 °C

Reference: ChEMBL document CHEMBL1145498, “A systematic interaction map of validated kinase inhibitors with Ser/Thr kinases” (Proc Natl Acad Sci U S A, 2007)
